Measured values as given in ChEMBL document CHEMBL1157392, “A cycloartane incorporating a fused tetrahydrofuran ring and a cytotoxic lactam from Monocarpia marginalis” (J Nat Prod, 2008).
Values after ≈ are worked out from the molar mass of the structure shown.

Legend:
Assay type in all cases: functional, cell-based
KB = test: Cytotoxicity against drug-sensitive human KB cells
Jurkat = test: Cytotoxicity against human Jurkat cells
[1] = Cytotoxicity against vincristine-resistant human KB/VJ300 cells

Row | SMILES | IC50 (KB) [µg/mL] | IC50 (Jurkat) [µg/mL] | IC50 [1] [µg/mL]
1 | O=C1C=CC=C2C(=O)c3c4c(ccc3=C2N1)=CC=N4 [MONOMARGINE] | 4.7 (≈ 18.9 µM) | 0.7 (≈ 2.82 µM) | 3 (≈ 12.1 µM)
2 | CC(C)=C1CC[C@H]([C@H]2CC[C@@]3(C)[C@@H]4CC[C@H]5C(C)(C)[C@@H](O)C(=O)C[C@@]56C[C@@]46CC[C@]23C)[C@H](O)C1 [MONOCARPINE] | > 5 |  | 
3 | COc1cc2c(c3c1=CC=N3)C(=O)C1=CC=CC(=O)NC=21 [MONOMARGININE] | 4 (≈ 14.4 µM) | 0.4 (≈ 1.44 µM) | 2.6 (≈ 9.34 µM)
